Test results from patent publication US20160090571A1, “CULTURE MEDIA AND METHODS FOR CULTURING MICROORGANISMS” (Orior, LLC, priority 2014, published 2016).

Tested on: microorganism associated with Morgellons disease
Experiment: Drug sensitivity / growth inhibition testing of the cultured microorganism
Assay type: cell-based
Settings: for inhibitory effect on organism growth: antibiotic added to solution
Excerpt: In other studies, Itraconazole and Posaconazole were each added to the culture medium followed by the organism.

Molecule | inhibition of growth (antifungal agent added to the culture medium followed by the organism) | inhibitory effect on organism growth
CC[C@@H]([C@H](C)O)n1ncn(-c2ccc(N3CCN(c4ccc(OC[C@@H]5CO[C@@](Cn6cncn6)(c6ccc(F)cc6F)C5)cc4)CC3)cc2)c1=O [Posaconazole] | Neither antifungal agent was shown to inhibit growth | 
CC1(C)S[C@@H]2[C@H](NC(=O)[C@H](N)c3ccccc3)C(=O)N2[C@H]1C(=O)O [Ampicillin] |  | no inhibitory effect
O=C(O)c1cn(C2CC2)c2cc(N3CCNCC3)c(F)cc2c1=O [Ciprofloxacin] |  | no inhibitory effect
Neomycin |  | no inhibitory effect
CN(C)[C@@H]1C(O)=C(C(N)=O)C(=O)[C@@]2(O)C(O)=C3C(=O)c4c(O)cccc4[C@@](C)(O)[C@H]3C[C@@H]12 [Tetracycline] |  | no inhibitory effect
CC[C@H]1OC(=O)[C@H](C)[C@@H](O[C@H]2C[C@@](C)(OC)[C@@H](O)[C@H](C)O2)[C@H](C)[C@@H](O[C@@H]2O[C@H](C)C[C@H](N(C)C)[C@H]2O)[C@](C)(O)C[C@@H](C)C(=O)[C@H](C)[C@@H](O)[C@]1(C)O [Erythromycin] |  | no inhibitory effect
Penicillin |  | no inhibitory effect
